Assay results: ChEMBL document CHEMBL3352151, “In vitro and in vivo antibacterial evaluation and mechanistic study of ornithine based small cationic lipopeptides against antibiotic resistant clinical isolates” (Eur J Med Chem, 2014)
≈ marks a conversion by molar mass, not a printed value. Square brackets hold non-standard residues; d marks the D form. Peptide text beside a SMILES is read from it. * marks the point of attachment. Myristoyl = CCCCCCCCCCCCCC(=O)*; Orn = NCCC[CH](N)C(=O)O

How the values were obtained:
Enterococcus faecalis [1] = test: Antibacterial activity against clinical isolates of gentamicin-resistant Enterococcus faecalis GMCH/R-Gen011 after overnight incubation by microdilution broth assay; format: functional
Acinetobacter baumannii [2] = test: Antibacterial activity against clinical isolates of Acinetobacter baumannii GMCH/B0083 after overnight incubation by microdilution broth assay; format: functional
Escherichia coli [3] = test: Antibacterial activity against clinical isolates of imipenem-resistant Escherichia coli PGI/DML02292 after overnight incubation by microdilution broth assay; format: functional
Streptococcus pneumoniae [4] = test: Antibacterial activity against clinical isolates of Streptococcus pneumoniae PGI/DML02468 after overnight incubation by microdilution broth assay; format: functional
Klebsiella pneumoniae [5] = test: Antibacterial activity against clinical isolates of Klebsiella pneumoniae GMCH/B0127 after overnight incubation by microdilution broth assay; format: functional
Enterococcus faecalis [6] = test: Antibacterial activity against clinical isolates of Enterococcus faecalis GMCH/B0091 after overnight incubation by microdilution broth assay; format: functional
Escherichia coli [7] = test: Antibacterial activity against clinical isolates of Escherichia coli PGI/DML02250 after overnight incubation by microdilution broth assay; format: functional
Enterococcus faecium [8] = test: Antibacterial activity against clinical isolates of penicillin-resistant Enterococcus faecium GMCH/R-Pen003 after overnight incubation by microdilution broth assay; format: functional
Pseudomonas aeruginosa [9] = test: Antibacterial activity against clinical isolates of Pseudomonas aeruginosa PGI/DML02084 after overnight incubation by microdilution broth assay; format: functional
[10] = system: Staphylococcus epidermidis; test: Antibacterial activity against clinical isolates of Staphylococcus epidermidis GMCH/B0057 after overnight incubation by microdilution broth assay; format: functional
Haemophilus influenzae [11] = test: Antibacterial activity against clinical isolates of ciprofloxacin-resistant Haemophilus influenzae PGI/DML01744 after overnight incubation by microdilution broth assay; format: functional
Haemophilus influenzae [12] = test: Antibacterial activity against clinical isolates of Haemophilus influenzae PGI/DML01751 after overnight incubation by microdilution broth assay; format: functional
[13] = system: Staphylococcus epidermidis; test: Antibacterial activity against clinical isolates of ampicillin-resistant Staphylococcus epidermidis GMCH/R-Amp008 after overnight incubation by microdilution broth assay; format: functional
Enterococcus faecium [14] = test: Antibacterial activity against clinical isolates of Enterococcus faecium GMCH/B0102 after overnight incubation by microdilution broth assay; format: functional
[15] = Cytotoxicity against human HaCaT cells assessed as cell viability at 100 ug/ml after 18 hrs by MTT assay; format: cell-based; conditions: read-out: Activity
Staphylococcus aureus [16] = test: Antibacterial activity against clinical isolates of methicillin-resistant Staphylococcus aureus PGI/DML03149 after overnight incubation by microdilution broth assay; format: functional
[17] = Cytotoxicity against human HaCaT cells assessed as cell viability at 500 ug/ml after 18 hrs by MTT assay; format: cell-based; conditions: read-out: Activity
Acinetobacter baumannii [18] = test: Antibacterial activity against clinical isolates of imipenem-resistant Acinetobacter baumannii GMCH/R-Imi003 after overnight incubation by microdilution broth assay; format: functional
Staphylococcus aureus [19] = test: Antibacterial activity against clinical isolates of Staphylococcus aureus PGI/DML03054 after overnight incubation by microdilution broth assay; format: functional
Klebsiella pneumoniae [20] = test: Antibacterial activity against clinical isolates of kanamycin-resistant Klebsiella pneumoniae GMCH/R-Kan006 after overnight incubation by microdilution broth assay; format: functional
Pseudomonas aeruginosa [21] = test: Antibacterial activity against clinical isolates of streptomycin-resistant Pseudomonas aeruginosa PGI/DML01991 after overnight incubation by microdilution broth assay; format: functional
Streptococcus pneumoniae [22] = test: Antibacterial activity against clinical isolates of erythromycin-resistant Streptococcus pneumoniae PGI/DML02213 after overnight incubation by microdilution broth assay; format: functional

Compound | MIC (Enterococcus faecalis [1]) [µg/mL] | MIC (Acinetobacter baumannii [2]) [µg/mL] | MIC (Escherichia coli [3]) [µg/mL] | MIC (Streptococcus pneumoniae [4]) [µg/mL] | MIC (Klebsiella pneumoniae [5]) [µg/mL] | MIC (Enterococcus faecalis [6]) [µg/mL] | MIC (Escherichia coli [7]) [µg/mL] | MIC (Enterococcus faecium [8]) [µg/mL] | MIC (Pseudomonas aeruginosa [9]) [µg/mL] | MIC [10] [µg/mL] | MIC (Haemophilus influenzae [11]) [µg/mL] | MIC (Haemophilus influenzae [12]) [µg/mL] | MIC [13] [µg/mL] | MIC (Enterococcus faecium [14]) [µg/mL] | viability at 18 h, 100 ug/ml [15] [%] | MIC (Staphylococcus aureus [16]) [µg/mL] | viability at 18 h, 500 ug/ml [17] [%] | MIC (Acinetobacter baumannii [18]) [µg/mL] | MIC (Staphylococcus aureus [19]) [µg/mL] | MIC (Streptococcus pneumoniae [22]) [µg/mL] | other results
CCCCCCCCCCCCCCCC(=O)NC(CCCN)C(=O)NC(CCCN)C(=O)NC(CCCN)C(N)=O (stereo unspecified) | 5 (≈ 8.36 µM) | 4 (≈ 6.69 µM) | 6.25 (≈ 10.5 µM) | 3.1 (≈ 5.18 µM) | 3.5 (≈ 5.85 µM) | 3.1 (≈ 5.18 µM) | 5.5 (≈ 9.2 µM) | 5 (≈ 8.36 µM) | 2.5 (≈ 4.18 µM) | 4 (≈ 6.69 µM) | 5.5 (≈ 9.2 µM) | 5 (≈ 8.36 µM) | 5.5 (≈ 9.2 µM) | 3 (≈ 5.02 µM) | > 80 | 4.5 (≈ 7.53 µM) | > 80 | 5.5 (≈ 9.2 µM) | 5 (≈ 8.36 µM) | 3.5 (≈ 5.85 µM) | MIC (Klebsiella pneumoniae [20]): 3.1 µg/mL (≈ 5.18 µM); MIC (Pseudomonas aeruginosa [21]): 3.1 µg/mL (≈ 5.18 µM)
CCCCCCCCCCCCCCCCCC(=O)NC(CCCN)C(=O)NC(CCCN)C(=O)NC(CCCN)C(N)=O (stereo unspecified) | 6.25 (≈ 9.98 µM) | 6.5 (≈ 10.4 µM) | 7.5 (≈ 12 µM) | 2.5 (≈ 3.99 µM) | 3.5 (≈ 5.59 µM) | 2.5 (≈ 3.99 µM) | 10 (≈ 16 µM) | 7.5 (≈ 12 µM) | 1.5 (≈ 2.4 µM) | 7.5 (≈ 12 µM) | 7.5 (≈ 12 µM) | 10 (≈ 16 µM) | 5 (≈ 7.99 µM) | 4.5 (≈ 7.19 µM) | > 80 | 5.5 (≈ 8.79 µM) | > 80 | 4.5 (≈ 7.19 µM) | 6.2 (≈ 9.91 µM) | 5 (≈ 7.99 µM) | MIC (Klebsiella pneumoniae [20]): 7.5 µg/mL (≈ 12 µM); MIC (Pseudomonas aeruginosa [21]): 4.5 µg/mL (≈ 7.19 µM)
CCCCCCCCCC(=O)N[C@@H](Cc1c[nH]c2ccccc12)C(=O)N[C@H](CC(N)=O)C(=O)N[C@@H](CC(=O)O)C(=O)N[C@@H]1C(=O)NCC(=O)N[C@@H](CCCN)C(=O)N[C@@H](CC(=O)O)C(=O)N[C@H](C)C(=O)N[C@@H](CC(=O)O)C(=O)NCC(=O)N[C@H](CO)C(=O)N[C@@H]([C@H](C)CC(=O)O)C(=O)N[C@@H](CC(=O)c2ccccc2N)C(=O)O[C@@H]1C | 1.5 (≈ 0.926 µM) |  |  | 1.25 (≈ 0.771 µM) |  | 1.75 (≈ 1.08 µM) |  | 2.5 (≈ 1.54 µM) |  | 0.5 (≈ 0.309 µM) |  |  | 1.5 (≈ 0.926 µM) | 2 (≈ 1.23 µM) |  | 1.25 (≈ 0.771 µM) |  |  | 0.7 (≈ 0.432 µM) | 1.5 (≈ 0.926 µM) | 
CCCCCCCCCCCCCC(=O)NC(CCCN)C(=O)NC(CCCN)C(=O)NC(CCCN)C(=O)NC(CCCN)C(N)=O (stereo unspecified) (Myristoyl-[Orn][Orn][Orn][Orn]-NH2; configuration not given here) | 3.5 (≈ 5.12 µM) | 5 (≈ 7.31 µM) | 10 (≈ 14.6 µM) | 5.5 (≈ 8.04 µM) | 4.5 (≈ 6.58 µM) | 2 (≈ 2.92 µM) | 2.5 (≈ 3.66 µM) | 5.5 (≈ 8.04 µM) | 3.1 (≈ 4.53 µM) | 3.5 (≈ 5.12 µM) | 10 (≈ 14.6 µM) | 12.5 (≈ 18.3 µM) | 4.25 (≈ 6.21 µM) | 4 (≈ 5.85 µM) | > 80 | 5 (≈ 7.31 µM) | > 80 | 5.5 (≈ 8.04 µM) | 4.5 (≈ 6.58 µM) | 7.5 (≈ 11 µM) | MIC (Klebsiella pneumoniae [20]): 6.25 µg/mL (≈ 9.14 µM); MIC (Pseudomonas aeruginosa [21]): 3 µg/mL (≈ 4.39 µM)
